What was measured:
[1] = target: Carboxylic ester hydrolase (Equus caballus, UniProt Q9N1N9); experiment: AChE and BChE Inhibition Assay; settings: pH 8; 25 °C
Procedure: (§1) To evaluate in vitro AChE activity, modified Ellman's method was performed using a 96-well plate reader (BioTek ELx808, Highland Park, IL, USA). Each well contained 50 µL potassium phosphate buffer (KH2PO4/K2HPO4, 0.1 M, pH 8), 25 µL sample dissolved in 50% methanol and 50% DMSO, and 25 µL enzyme (final concentration 0.22 U/mL in buffer). They were preincubated for 20 min at room temperature, and then, 125 µL DTNB (3 mM in buffer) was added. […] The IC50 values were determined graphically from inhibition curves (log inhibitor concentration versus percent of inhibition). A control experiment was performed under the same conditions without inhibitor and the blank contained buffer, DMSO, DTNB, and substrate. The described method was also used for BChE inhibition assa

[2] = target: Acetylcholinesterase (Electrophorus electricus, UniProt O42275); experiment: AChE and BChE Inhibition Assay; settings: pH 8; 25 °C
Sequence of Acetylcholinesterase (O42275 whole entry): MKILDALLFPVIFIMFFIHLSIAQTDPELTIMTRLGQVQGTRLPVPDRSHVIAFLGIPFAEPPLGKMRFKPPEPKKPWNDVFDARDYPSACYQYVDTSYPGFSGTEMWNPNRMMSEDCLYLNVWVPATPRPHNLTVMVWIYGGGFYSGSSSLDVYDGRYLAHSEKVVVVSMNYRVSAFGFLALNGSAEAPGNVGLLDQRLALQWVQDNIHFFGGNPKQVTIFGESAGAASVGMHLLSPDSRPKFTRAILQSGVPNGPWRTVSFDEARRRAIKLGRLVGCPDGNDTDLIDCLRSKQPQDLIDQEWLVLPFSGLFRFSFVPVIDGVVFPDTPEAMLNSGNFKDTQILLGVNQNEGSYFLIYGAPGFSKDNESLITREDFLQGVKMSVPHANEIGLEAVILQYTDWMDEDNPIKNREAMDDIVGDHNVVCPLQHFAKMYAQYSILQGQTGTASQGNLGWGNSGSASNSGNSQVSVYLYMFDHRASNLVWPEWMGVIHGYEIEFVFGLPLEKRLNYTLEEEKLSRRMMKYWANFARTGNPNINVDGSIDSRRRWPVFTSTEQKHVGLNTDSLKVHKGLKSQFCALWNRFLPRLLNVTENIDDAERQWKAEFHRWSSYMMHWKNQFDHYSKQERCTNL
Procedure: as §1

Sequence of Carboxylic ester hydrolase (Q9N1N9 whole entry): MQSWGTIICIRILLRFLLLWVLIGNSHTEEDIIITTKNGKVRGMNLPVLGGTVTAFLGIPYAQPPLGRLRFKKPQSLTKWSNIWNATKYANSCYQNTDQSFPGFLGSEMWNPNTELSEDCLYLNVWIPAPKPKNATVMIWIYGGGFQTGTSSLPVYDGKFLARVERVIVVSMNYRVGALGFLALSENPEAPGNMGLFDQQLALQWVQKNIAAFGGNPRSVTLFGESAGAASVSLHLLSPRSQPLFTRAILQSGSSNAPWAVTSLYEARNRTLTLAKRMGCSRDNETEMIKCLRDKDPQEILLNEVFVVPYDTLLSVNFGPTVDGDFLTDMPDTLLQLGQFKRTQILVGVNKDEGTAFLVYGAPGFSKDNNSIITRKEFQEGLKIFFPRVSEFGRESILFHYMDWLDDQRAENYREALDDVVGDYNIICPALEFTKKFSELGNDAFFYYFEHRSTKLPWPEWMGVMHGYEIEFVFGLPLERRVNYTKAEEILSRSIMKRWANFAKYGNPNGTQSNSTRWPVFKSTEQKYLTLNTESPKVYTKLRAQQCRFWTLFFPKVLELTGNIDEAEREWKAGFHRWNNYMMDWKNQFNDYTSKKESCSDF

Compound | IC50 [1] [µM] | IC50 [2] [µM]
O=c1c2ccccc2n(Cc2cn(Cc3nc(-c4ccc(Cl)cc4)no3)nn2)c2ccccc12 [10-((1-((3-(4-Chlorophenyl)-1,2,4-oxadiazol-5-yl)methyl)-1H-1,2,3-triazol-4-yl)methyl)acridin-9(10H)-one (10c)] | 88.9 | 24.7
O=c1c2ccccc2n(Cc2cn(Cc3nc(-c4ccc(Cl)cc4)no3)nn2)c2ccc(Cl)cc12 [2-Chloro-10-((1-((3-(4-chlorophenyl)-1,2,4-oxadiazol-5-yl)methyl)-1H-1,2,3-triazol-4-yl)methyl)acridin-9(10H)-one (10n)] | > 100 | 44.9
O=c1c2ccccc2n(Cc2cn(Cc3nc(-c4ccc(Cl)cc4)no3)nn2)c2ccc(Br)cc12 [2-Bromo-10-((1-((3-(4-chlorophenyl)-1,2,4-oxadiazol-5-yl)methyl)-1H-1,2,3-triazol-4-yl)methyl)acridin-9(10H)-one (10p)] | > 100 | > 100
COc1ccc2c(c1)c(=O)c1ccccc1n2Cc1cn(Cc2nc(-c3ccc(Cl)cc3)no2)nn1 [10-((1-((3-(4-Chlorophenyl)-1,2,4-oxadiazol-5-yl)methyl)-1H-1,2,3-triazol-4-yl)methyl)-2-methoxyacridin-9(10H)-one (10k)] | > 100 | 77.8
COc1cccc2c(=O)c3ccccc3n(Cc3cn(Cc4nc(-c5ccc(C)cc5)no4)nn3)c12 [4-Methoxy-10-((1-((3-(p-tolyl)-1,2,4-oxadiazol-5-yl)methyl)-1H-1,2,3-triazol-4-yl)methyl)acridin-9(10H)-one (10e)] | > 100 | > 100
COc1ccc(-c2noc(Cn3cc(Cn4c5ccccc5c(=O)c5ccccc54)nn3)n2)cc1 [10-((1-((3-(4-Methoxyphenyl)-1,2,4-oxadiazol-5-yl)methyl)-1H-1,2,3-triazol-4-yl)methyl)acridin-9(10H)-one (10b)] | > 100 | 11.5
Cc1ccc2c(c1)c(=O)c1ccccc1n2Cc1cn(Cc2nc(-c3ccc(Cl)cc3)no2)nn1 [10-((1-((3-(4-Chlorophenyl)-1,2,4-oxadiazol-5-yl)methyl)-1H-1,2,3-triazol-4-yl)methyl)-2-methylacridin-9(10H)-one (10h)] | > 100 | > 100
COc1ccc(-c2noc(Cn3cc(Cn4c5ccccc5c(=O)c5cccc(Cl)c54)nn3)n2)cc1 [4-Chloro-10-((1-((3-(4-methoxyphenyl)-1,2,4-oxadiazol-5-yl)methyl)-1H-1,2,3-triazol-4-yl)methyl)acridin-9(10H)-one (10g)] | > 100 | > 100
COc1ccc2c(c1)c(=O)c1ccccc1n2Cc1cn(Cc2nc(-c3ccc(C)cc3)no2)nn1 [2-Methoxy-10-((1-((3-(p-tolyl)-1,2,4-oxadiazol-5-yl)methyl)-1H-1,2,3-triazol-4-yl)methyl)acridin-9(10H)-one (10i)] | > 100 | > 100
COc1ccc(-c2noc(Cn3cc(Cn4c5ccccc5c(=O)c5cc(Cl)ccc54)nn3)n2)cc1 [2-Chloro-10-((1-((3-(4-methoxyphenyl)-1,2,4-oxadiazol-5-yl)methyl)-1H-1,2,3-triazol-4-yl)methyl)acridin-9(10H)-one (10m)] | > 100 | > 100
Cc1ccc(-c2noc(Cn3cc(Cn4c5ccccc5c(=O)c5ccccc54)nn3)n2)cc1 [10-((1-((3-(p-Tolyl)-1,2,4-oxadiazol-5-yl)methyl)-1H-1,2,3-triazol-4-yl)methyl)acridin-9(10H)-one (10a)] | > 100 | 49
COc1ccc(-c2noc(Cn3cc(Cn4c5ccccc5c(=O)c5cccc(OC)c54)nn3)n2)cc1 [4-Methoxy-10-((1-((3-(4-methoxyphenyl)-1,2,4-oxadiazol-5-yl)methyl)-1H-1,2,3-triazol-4-yl)methyl)acridin-9(10H)-one (10f)] | > 100 | > 100
O=c1c2ccccc2n(Cc2cn(Cc3nc(-c4ccc(Br)cc4)no3)nn2)c2ccccc12 [10-((1-((3-(4-Bromophenyl)-1,2,4-oxadiazol-5-yl)methyl)-1H-1,2,3-triazol-4-yl)methyl)acridin-9(10H)-one (10d)] | > 100 | 67.4
COc1ccc(-c2noc(Cn3cc(Cn4c5ccccc5c(=O)c5cc(OC)ccc54)nn3)n2)cc1 [2-Methoxy-10-((1-((3-(4-methoxyphenyl)-1,2,4-oxadiazol-5-yl)methyl)-1H-1,2,3-triazol-4-yl)methyl)acridin-9(10H)-one (10j)] | > 100 | > 100
Cc1ccc(-c2noc(Cn3cc(Cn4c5ccccc5c(=O)c5cc(Cl)ccc54)nn3)n2)cc1 [2-Chloro-10-((1-((3-(p-tolyl)-1,2,4-oxadiazol-5-yl)methyl)-1H-1,2,3-triazol-4-yl)methyl)acridin-9(10H)-one (10l)] | > 100 | > 100
COc1ccc(-c2noc(Cn3cc(Cn4c5ccccc5c(=O)c5cc(Br)ccc54)nn3)n2)cc1 [2-Bromo-10-((1-((3-(4-methoxyphenyl)-1,2,4-oxadiazol-5-yl)methyl)-1H-1,2,3-triazol-4-yl)methyl)acridin-9(10H)-one (10o)] | > 100 | > 100
